“Also recorded” adds a separate entry of the source. *1 amine or outer side, *2 acyl side, *3 side chain or, on linkers, in order; H or OH if unused. Where a SMILES comes first, the peptide text is derived from it. [ ]: non-standard residue; d: D form. dAla(ψthiazole) = C[C@@H](N[*:1])c1nc(C(=O)[*:2])cs1; Trp(4-OMe) = COc1cccc2[nH]cc(C[C@H](N)C(=O)O)c12; dAbu = CC[C@@H](N)C(=O)O; Dha = C=C(N)C(=O)O; Sar = CNCC(=O)O
Experiments:
P. aeruginosa EF-G1 = molecular target: T1, P. aeruginosa EF-G1 (Pseudomonas aeruginosa, UniProt Q9HWD2); assay: Surface plasmon resonance (SPR); assay type: binding
T1 construct: P. aeroginosa fusA1 encoding full-length EF-G was PCR amplified from pET28a-PaEFG-Nhis; made in house; host or cells: E. coli BL21 (DE3)
Text: For wild type P. aeruginosa EF-G1 expression, the fusA gene was amplified from genomic DNA of P. aeruginosa PAO1 K767 using the primer pair EFG-F/EFG-R: […]/[…]. The product was digested with NdeI and HindIII and ligated into similarly digested pET28a to generate pET28a-PaEFG-Nhis. This plasmid was then used for site directed mutagenesis to introduce the nucleotide change encoding EF-G1S459F (pET28a-PaEFGS459F-Nhis). The plasmids were then transformed into an E. coli strain BL21 (DE3) for expression. A single colony was used to inoculate 10 ml LB broth containing 50 µg/ml kanamycin which was incubated at 37°C overnight, with shaking at 250 rpm. The overnight culture was then diluted 100-fold into 1 liter fresh LB broth containing 50 µg/ml kanamycin. After growing at 37°C with vigorous shaking for about 2.5 hours, expression of P. aeruginosa EF-G1 or EF-G1S459F was then induced by adding 0.1 mM IPTG, with further culture incubation at 18°C for 24 hours. Cells were then pelleted by centrifugation at 5,000 rpm with Sorvall SLC-6000 rotor and stored at −20°C. Cell pellets were then resuspended in 20 ml of BugBuster solution (Novagen) and incubated at room temperature for 20 minutes. […] The protein in the fractions was monitored by UV absorbance at 280 nm. […] Protein concentration was determined by Nano-drop spectrophotometer. […]

[1] = system: recombinant human mEF-G1 WT; assay: Biacore binding, human mEF-G1 WT; settings: 10, 20, 40 µM, HBS-P+ pH 7.4, 4% DMSO
Text: GFM1 encoding the active site of EF-G1 (residues 36–751) was PCR amplified from pDONR221 constructs using primers (GGGGACAAGTTTGTACAAAAAAGCAGGCTTAATGTCTTCATCAGGGGTGATT, GGGGACCACTTTGTACAAGAAAGCTGGGTATTAGTTCTTGGCTTTTCC). P. aeroginosa fusA1 encoding full-length EF-G was PCR amplified from pET28a-PaEFG-Nhis using primers (GGGGACCACTTTGTACAAGAAAGCTGGGTATTATCAACCTTGTTTTTT, GGGGACAAGTTTGTACAAAAAAGCAGGCTTAATGGCCCGTACTACACCC). Purified PCR products were cloned into the pDONR221 vector using Gateway cloning and BP Clonase II (Invitrogen), shuttled into an E.coli protein expression vector for N-terminal tagging (Avitag-His6 vector) using LR Clonase II (Invitrogen), and verified by sequencing. Avitag-His6-hEF-G1 and Avitag-His6-PaEF-G constructs were transformed into BL21-AI cells (Invitrogen) and isolated single colonies were used to inoculate 5 ml cultures which were grown overnight at 37°C with shaking. […]. Briefly, protein was captured on column using binding buffer (50 mM Tris; pH 7.5, 300 mM NaCl, 20 mM imidazole, 10% glycerol), washed extensively with washing buffer (50 mM Tris; pH 7.5, 500 mM NaCl, 30 mM imidazole, 10% glycerol), and then eluted with elution buffer (50 mM Tris; pH 7.5, 500 mM NaCl, 250 mM imidazole, 10% glycerol). […]

T1 sequence (Q9HWD2 whole entry): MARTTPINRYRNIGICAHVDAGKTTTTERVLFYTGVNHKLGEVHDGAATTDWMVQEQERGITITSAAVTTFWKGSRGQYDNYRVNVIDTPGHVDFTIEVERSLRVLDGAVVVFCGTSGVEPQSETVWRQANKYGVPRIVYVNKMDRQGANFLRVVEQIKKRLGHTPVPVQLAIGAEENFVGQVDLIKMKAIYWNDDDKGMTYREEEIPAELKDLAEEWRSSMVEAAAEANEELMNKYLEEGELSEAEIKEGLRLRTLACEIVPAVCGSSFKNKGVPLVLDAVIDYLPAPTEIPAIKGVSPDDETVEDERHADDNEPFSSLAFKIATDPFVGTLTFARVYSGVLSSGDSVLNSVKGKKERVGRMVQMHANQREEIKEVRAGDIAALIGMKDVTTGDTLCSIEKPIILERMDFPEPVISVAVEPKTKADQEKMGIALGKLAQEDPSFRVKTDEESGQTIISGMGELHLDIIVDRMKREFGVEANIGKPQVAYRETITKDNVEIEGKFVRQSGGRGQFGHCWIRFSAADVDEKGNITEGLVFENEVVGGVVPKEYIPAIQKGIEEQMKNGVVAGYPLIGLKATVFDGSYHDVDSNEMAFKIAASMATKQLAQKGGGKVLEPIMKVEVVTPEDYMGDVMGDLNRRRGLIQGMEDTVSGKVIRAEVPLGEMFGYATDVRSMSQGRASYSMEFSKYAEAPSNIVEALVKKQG

**Q.** With C=C1NC(=O)CN(C)C(=O)CNC(=O)[C@H](Cc2c[nH]c3cccc(OC)c23)NC(=O)[C@H](Cc2c[nH]c3ccccc23)NC(=O)c2csc(n2)[C@@H](C)NC(=O)[C@@H](CC)NC1=O [argyrin B] (cyclo([dAbu][dAla(ψthiazole)]W[Trp(4-OMe)]G[Sar][Dha])) as the compound, how does the “Binding to purified P. aeruginosa EF-G (in words)” value (P. aeruginosa EF-G1) read?
**A.** bound purified P. aeruginosa EF-G tightly; also recorded: Very tight binding

**Q.** What about the “Binding to human mEF-G1 (in words)” value [1] of the same compound?
**A.** still bound

— publication PMC3438169 (PLoS ONE, 2012)
